Assay results: US6747033B2, “Fungicidal triazolopyrimid-7-ylideneamines” (BASF Aktiengesellschaft, priority 2000, dated 2004)
Where two headings read alike, the source gives them in different places.

Columns and labels:
Venturia inaequalis = assay: In vivo fungicidal activity, Apple Scab (AS); also: ranges in brackets are in %
Botrytis cinera = assay: In vivo fungicidal activity, Pepper Botrytis (PB); also: ranges in brackets are in %
Alternara solani = assay: In vivo fungicidal activity, Tomato early blight (TEB); also: ranges in brackets are in %
Blumeria graminis = assay: In vivo fungicidal activity, Wheat powdery mildew (WPM); also: ranges in brackets are in %
[1] = tested on: Pyricularia grisea f. sp. oryzae; assay type: in vivo; details: Rice Blast
Plasmopara viticola = assay: In vivo fungicidal activity, Grape downy mildew (GDM); also: ranges in brackets are in %
Rhizoctonia solani = assay: In vitro fungicidal activity, Rice sheath blight (RHIZSO); assay type: cell-based; set-up: key: 0: None; 3: slight; 5: moderate; 7: severe; 9: complete; details: 3-7 days of incubation
Description: (§1) Test compounds are dissolved in acetone to give concentrations of 25, 10 and 1 ppm and are added to individual cell Walls (24-cell-well plates, Corning), which were previously filled with a suspension of ground plates, Corning), which were previously filled with a suspension of ground fungal mycelium in a chemically defined growth medium. After 3-7 days of incubation, inhibition of […] growth is recorded using the following scale: The data obtained are shown in Table II. [table]

[2] = tested on: Pseudocercosporella herpotrichoides; assay: In vitro fungicidal activity, Cereal eye spot (PSDCHE); assay type: cell-based; set-up: key: 0: None; 3: slight; 5: moderate; 7: severe; 9: complete; details: 3-7 days of incubation
Description: as §1

Pythium ultimum = assay: In vitro fungicidal activity, Fruit rot (PYTHUL); assay type: cell-based; set-up: key: 0: None; 3: slight; 5: moderate; 7: severe; 9: complete; details: 3-7 days of incubation
Description: as §1

SMILES	AS disease control rating (Venturia inaequalis; 12.5 ppm spray)	AS disease control rating (Venturia inaequalis; 50 ppm spray)	AS disease control rating (Venturia inaequalis; 200 ppm spray)	PB disease control rating (Botrytis cinera; 12.5 ppm spray)	PB disease control rating (Botrytis cinera; 50 ppm spray)	PB disease control rating (Botrytis cinera; 200 ppm spray)	TEB disease control rating (Alternara solani; 12.5 ppm spray)	TEB disease control rating (Alternara solani; 50 ppm spray)	TEB disease control rating (Alternara solani; 200 ppm spray)	WPM disease control rating (Blumeria graminis; 12.5 ppm spray)	WPM disease control rating (Blumeria graminis; 50 ppm spray)	WPM disease control rating (Blumeria graminis; 200 ppm spray)	RB disease control rating ([1]; 12.5 ppm spray)	RB disease control rating ([1]; 50 ppm spray)	RB disease control rating ([1]; 200 ppm spray)	GDM disease control rating (Plasmopara viticola; 12.5 ppm spray)	GDM disease control rating (Plasmopara viticola; 50 ppm spray)	GDM disease control rating (Plasmopara viticola; 200 ppm spray)	RHIZSO inhibition of mycelial growth rating (Rhizoctonia solani; 1 ppm)	RHIZSO inhibition of mycelial growth rating (Rhizoctonia solani; 10 ppm)	other results
CC(N=c1c(-c2c(F)cccc2F)c(Cl)n(C)c2ncnn12)C(F)(F)F (centres unmarked) [Example 5]	0 (0)	0 (0)	0 (0)	0 (0)	0 (0)	1 (1-14)	0 (0)	0 (0)	0 (0)	0 (0)	3 (30-44)	6 (75-89)	0 (0)	0 (0)	0 (0)	6 (75-89)	6 (75-89)	5 (60-74)	–	–	–
CC(N=c1c(-c2ccccc2Cl)c(Cl)n(C)c2ncnn12)C(F)(F)F (centres unmarked) [Example 6]	0 (0)	0 (0)	5 (60-74)	0 (0)	0 (0)	0 (0)	0 (0)	0 (0)	0 (0)	0 (0)	0 (0)	5 (60-74)	0 (0)	0 (0)	5 (60-74)	0 (0)	0 (0)	7 (90-95)	0	0	RHIZSO inhibition of mycelial growth rating (Rhizoctonia solani; 25 ppm): 0; PSDCH inhibition of mycelial growth rating ([2]; 1 ppm): 0; PSDCH inhibition of mycelial growth rating ([2]; 10 ppm): 1; PSDCH inhibition of mycelial growth rating ([2]; 25 ppm): 0; PYTHU inhibition of mycelial growth rating (Pythium ultimum; 1 ppm): 0; PYTHU inhibition of mycelial growth rating (Pythium ultimum; 10 ppm): 0; PYTHU inhibition of mycelial growth rating (Pythium ultimum; 25 ppm): 0
CC(N=c1c(-c2ccc(F)cc2F)c(Cl)n(C)c2ncnn12)C(F)(F)F (centres unmarked) [Example 7]	0 (0)	0 (0)	6 (75-89)	2 (15-29)	0 (0)	0 (0)	0 (0)	0 (0)	0 (0)	0 (0)	4 (45-59)	6 (75-89)	0 (0)	0 (0)	4 (45-59)	0 (0)	0 (0)	8 (96-99)	5	5	RHIZSO inhibition of mycelial growth rating (Rhizoctonia solani; 25 ppm): 5; PSDCH inhibition of mycelial growth rating ([2]; 1 ppm): 0; PSDCH inhibition of mycelial growth rating ([2]; 10 ppm): 1; PSDCH inhibition of mycelial growth rating ([2]; 25 ppm): 0; PYTHU inhibition of mycelial growth rating (Pythium ultimum; 1 ppm): 0; PYTHU inhibition of mycelial growth rating (Pythium ultimum; 10 ppm): 0; PYTHU inhibition of mycelial growth rating (Pythium ultimum; 25 ppm): 0
Cn1c(Cl)c(-c2c(F)cc(F)cc2F)c(=NCC(F)(F)F)n2ncnc12 [Example 8]	0 (0)	0 (0)	5 (60-74)	0 (0)	0 (0)	0 (0)	2 (15-29)	0 (0)	0 (0)	2 (15-29)	4 (45-59)	7 (90-95)	0 (0)	0 (0)	4 (45-59)	5 (60-74)	4 (45-59)	5 (60-74)	7	7	RHIZSO inhibition of mycelial growth rating (Rhizoctonia solani; 25 ppm): 7; PSDCH inhibition of mycelial growth rating ([2]; 1 ppm): 0; PSDCH inhibition of mycelial growth rating ([2]; 10 ppm): 0; PSDCH inhibition of mycelial growth rating ([2]; 25 ppm): 0; PYTHU inhibition of mycelial growth rating (Pythium ultimum; 1 ppm): 0; PYTHU inhibition of mycelial growth rating (Pythium ultimum; 10 ppm): 0; PYTHU inhibition of mycelial growth rating (Pythium ultimum; 25 ppm): 0
COc1cc(F)c(-c2c(Cl)nc3n(C)cnn3c2=NC(C)C(F)(F)F)c(F)c1 (centres unmarked) [Example 13]	0 (0)	0 (0)	0 (0)	0 (0)	0 (0)	0 (0)	0 (0)	0 (0)	0 (0)	0 (0)	3 (30-44)	5 (60-74)	0 (0)	0 (0)	0 (0)	0 (0)	0 (0)	0 (0)	–	–	–
CC(N=c1c(-c2c(F)cccc2F)c(Cl)nc2n(C)cnn12)C(F)(F)F (centres unmarked) [Example 14]	0 (0)	0 (0)	6 (75-89)	0 (0)	0 (0)	0 (0)	0 (0)	0 (0)	0 (0)	0 (0)	0 (0)	0 (0)	0 (0)	0 (0)	0 (0)	0 (0)	4 (45-59)	7 (90-95)	–	–	–
CC(N=c1c(-c2ccccc2Cl)c(Cl)nc2n(C)cnn12)C(F)(F)F (centres unmarked) [Example 15]	0 (0)	0 (0)	0 (0)	0 (0)	0 (0)	2 (15-29)	0 (0)	0 (0)	0 (0)	0 (0)	0 (0)	3 (30-44)	0 (0)	0 (0)	0 (0)	2 (15-29)	4 (45-59)	6 (75-89)	0	0	RHIZSO inhibition of mycelial growth rating (Rhizoctonia solani; 25 ppm): 3; PSDCH inhibition of mycelial growth rating ([2]; 1 ppm): 0; PSDCH inhibition of mycelial growth rating ([2]; 10 ppm): 0; PSDCH inhibition of mycelial growth rating ([2]; 25 ppm): 0; PYTHU inhibition of mycelial growth rating (Pythium ultimum; 1 ppm): 0; PYTHU inhibition of mycelial growth rating (Pythium ultimum; 10 ppm): 0; PYTHU inhibition of mycelial growth rating (Pythium ultimum; 25 ppm): 0
CC(N=c1c(-c2ccc(F)cc2F)c(Cl)nc2n(C)cnn12)C(F)(F)F (centres unmarked) [Example 16]	0 (0)	5 (60-74)	6 (75-89)	0 (0)	0 (0)	0 (0)	0 (0)	0 (0)	0 (0)	0 (0)	0 (0)	0 (0)	0 (0)	0 (0)	0 (0)	–	5 (60-74)	7 (90-95)	5	7	RHIZSO inhibition of mycelial growth rating (Rhizoctonia solani; 25 ppm): 7; PSDCH inhibition of mycelial growth rating ([2]; 1 ppm): 0; PSDCH inhibition of mycelial growth rating ([2]; 10 ppm): 0; PSDCH inhibition of mycelial growth rating ([2]; 25 ppm): 0; PYTHU inhibition of mycelial growth rating (Pythium ultimum; 1 ppm): 0; PYTHU inhibition of mycelial growth rating (Pythium ultimum; 10 ppm): 5; PYTHU inhibition of mycelial growth rating (Pythium ultimum; 25 ppm): 7
